# EP0017543B1, “Benzothiazole derivatives, process for their preparation and their therapeutical uses” (Albert ROLLAND S.A. Société dite, priority 1979, dated 1980)
# Assays:
# [1] = system: agrégation plaquettaire provoquée in vitro par l'ADP; assay: ADP-induced platelet aggregation in vitro in platelet-rich rat plasma; format: cell-based; settings: plasma de rat enrichi en plaquettes
# [2] = system: biosynthèse des prostaglandines; assay: Protection against arachidonic acid toxicity (lethal dose) in mice; format: in vivo, souris
# [3] = system: torsions à la phénylbenzoquinone chez la souris; assay: Phenylbenzoquinone writhing test (analgesic activity); format: in vivo; settings: dose de 12,5 mg/kg, 24 heures après son administration
# Protocol: L'activité analgésique des composés de formule 1 a été mise en évidence dans le test des torsions à la phénylbenzoquinone chez la souris. Ainsi, l'acide de formule 1 (racémique) possède dans ce test une DE50 de 3 à 6 mg/kg P.O. Cette activité analgésique est prolongée dans le temps, une dose de 12,5 mg/kg de ce composé entraînant encore une analgésie de 42%, 24 heures après son administration.
# Solubility in water = format: physicochemical
# Protocol: Le sel de pyrrolidine de l'acide (phényl-2 benzothiazolyl-6)-2 propionique est préparé par action d'I g d'amine sur 4 g d'acide en solution dans le méthanol. Il fond à 142°C.
structure (smiles),measurement,setting,value
CC(C(=O)O)c1ccc2nc(-c3ccccc3)sc2c1 (racemic),concentration active par rapport à l'acide acétyl salicylique,[1],actif à une concentration dix fois plus faible que l'acide acétyl salicylique
"CC(C(=O)O)c1ccc2nc(-c3ccccc3)sc2c1 (single isomer, unassigned) [Exemple 8a, acide (phényl-2 benzothiazolyl-6)-2 propionique]","activité contre la toxicité de l'acide arachidonique, comparison of enantiomers and racemate",[2]; route not stated for the comparison,"activité comparable à celle du racémique (exemple 1), et supérieure à celle de son homologue lévogyre"
"CC(C(=O)O)c1ccc2nc(-c3ccccc3)sc2c1 (racemic) [Exemple 1, acide (phényl-2 benzothiazolyl-6)-2 propionique]",analgésie,[3],42%
"CC(C(=O)O)c1ccc2nc(-c3ccccc3)sc2c1 (racemic) [Exemple 4, sel de pyrrolidine de l'acide (phényl-2 benzothiazolyl-6)-2 propionique]",solubilité dans l'eau,Solubility in water,soluble dans l'eau
"CC(C(=O)O)c1ccc2nc(-c3ccccc3)sc2c1 (racemic) [Exemple 3, (phényl-2 benzothiazolyl-6)-2 propionate de sodium]",solubilité dans l'eau,Solubility in water,soluble dans l'eau
same,activité contre la toxicité de l'acide arachidonique,"[2]; voie intraveineuse, same doses (0,5 mg/kg)",actifs aux mêmes doses
